Assay results: ChEMBL document CHEMBL4184317, “Discovery of Tetrahydroquinoxalines as Bromodomain and Extra-Terminal Domain (BET) Inhibitors with Selectivity for the Second Bromodomain” (J Med Chem, 2018)

Columns and labels:
[1] = molecular target: Bromodomain-containing protein 4 (Homo sapiens, UniProt O60885, Y97A)
[2] = buffer, pH 7.4
Description: Chromatographic hydrophobicity index, log D of the compound at pH 7.4 by HPLC method

PBMC = test: cells; settings: Homo sapiens, read-out: pIC50 (converted)
Description: Antiinflammatory activity in human PBMC assessed as inhibition of LPS-induced MCP1 release preincubated for 30 mins followed by LPS challenge measured after 24 hrs by immunoassay

[3] = molecular target: Bromodomain-containing protein 4 (Homo sapiens, UniProt O60885, Y390A)

IC50 [1]: 0.2 µM
logD [2]: 4.7
IC50 [3]: 15.8 µM
Structure (SMILES): CC(=O)N1c2ccccc2N(Cc2ccccc2CO)CC1C1CC1 (single isomer, unassigned)
IC50 (PBMC): 1 µM
